According to PMC11324870, “Branched-chain amino acid transaminase 1 confers EGFR-TKI resistance through epigenetic glycolytic activation” (Signal Transduction and Targeted Therapy, 2024):

Molecular target: T1, BCAT1 (branched-chain amino acid transaminase 1) (Homo sapiens, UniProt P54687)
T1 construct: recombinant human BCAT1 Protein (Sino Biological, #ME16FE2265)
T1 sequence (P54687 1-386): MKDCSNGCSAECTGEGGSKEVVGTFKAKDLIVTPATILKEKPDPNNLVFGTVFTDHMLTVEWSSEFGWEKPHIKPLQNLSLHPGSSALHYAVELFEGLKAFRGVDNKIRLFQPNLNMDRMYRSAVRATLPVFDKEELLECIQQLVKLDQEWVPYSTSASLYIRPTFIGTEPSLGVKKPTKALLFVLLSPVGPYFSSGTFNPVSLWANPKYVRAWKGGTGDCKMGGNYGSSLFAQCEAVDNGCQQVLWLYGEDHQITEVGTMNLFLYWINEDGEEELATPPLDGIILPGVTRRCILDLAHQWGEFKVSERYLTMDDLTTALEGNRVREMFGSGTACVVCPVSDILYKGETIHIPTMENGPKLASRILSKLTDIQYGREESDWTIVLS
Assay: coupled fluorescence (resazurin) enzyme activity assay with purified recombinant BCAT1; also CETSA in […] cells
Assay type: biochemical

NCC1(CC(=O)O)CC2CCC1C2 (racemic) [WQQ-345]
IC50: 10.8 mM
